Laboratory results from the supplement of paper PMC11061612.

Key:
DSH1 (Bladder Carcinoma) = test: combination Emax (second highest fraction inhibited in the dose matrix, 72 h); higher = more inhibition; extreme values may be limits of the assay
Method in brief: (§1)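 Bliss excess equals the observed combination effect minus the expected value EA + EB − EA·EB, where EA and EB are the effects of each agent alone. Combination Emax is the second-highest inhibition within the matrix. Inhibition was scaled from CellTiter-Glo 2.0 luminescence, with 0 set by vehicle wells and 1 by blank wells, after 72 hours of two-drug dosing of cells plated in 1536-well plates.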

[1] = test system: HPAC (Pancreatic Carcinoma); test: as above
Method in brief: as §1

[2] = test system: SUIT-2 (Pancreatic Carcinoma); test: as above
Method in brief: as §1

[3] = test system: HT-29 (Colorectal Carcinoma); test: as above
Method in brief: as §1

[4] = test system: LU-99A (Non-Small Cell Lung Carcinoma); test: as above
Method in brief: as §1

[5] = test system: SW1783 (Low Grade Glioma); test: as above
Method in brief: as §1

[6] = test system: NCI-H1299 (Non-Small Cell Lung Carcinoma); test: as above
Method in brief: as §1

[7] = test system: KARPAS-1106P (B-Cell Non-Hodgkin's Lymphoma); test: as above
Method in brief: as §1

[8] = test system: DB (B-Cell Non-Hodgkin's Lymphoma); test: as above
Method in brief: as §1

[9] = test system: MDA-MB-157 (Breast Carcinoma); test: Bliss excess, mean over the matrix (fraction); higher = more synergy
Method in brief: as §1

[10] = test system: KM-H2 (Hodgkin's Lymphoma); test: as above
Method in brief: as §1

RH-1 (Ewing's Sarcoma) = test: as above
Method in brief: as §1

CAL-78 (Chondrosarcoma) = test: as above
Method in brief: as §1

J82 (Bladder Carcinoma) = test: as above
Method in brief: as §1

[11] = test system: IHH-4 (Thyroid Gland Carcinoma); test: as above
Method in brief: as §1

[12] = test system: MDA-MB-231 (Breast Carcinoma); test: as above
Method in brief: as §1

ES7 (Ewing's Sarcoma) = test: as above
Method in brief: as §1

[13] = test system: 697 (B-Lymphoblastic Leukemia); test: as above
Method in brief: as §1

[14] = test system: G-292-Clone-A141B1 (Osteosarcoma); test: as above
Method in brief: as §1

[15] = test system: CFPAC-1 (Pancreatic Carcinoma); test: as above
Method in brief: as §1

Row | SMILES | combination Emax (DSH1 (Bladder Carcinoma)) | combination Emax [1] | combination Emax [2] | combination Emax [3] | combination Emax [4] | combination Emax [5] | combination Emax [6] | combination Emax [7] | combination Emax [8] | Bliss excess [9] | Bliss excess [10] | Bliss excess (RH-1 (Ewing's Sarcoma)) | Bliss excess (CAL-78 (Chondrosarcoma)) | Bliss excess (J82 (Bladder Carcinoma)) | Bliss excess [11] | Bliss excess [12] | Bliss excess (ES7 (Ewing's Sarcoma)) | Bliss excess [13] | Bliss excess [14] | Bliss excess [15]
1 | COc1cccc(OCCCN)c1-c1cc(Nc2cnc(C#N)cn2)n[nH]1 [Prexasertib] + Cc1cc2ncnn2cc1Nc1ncc2c(n1)n(C1CCOCC1)c(=O)n2C [AZD7648] (first compound max 1 µM, 7x7, partner max 10 µM) | 0.768 | 0.816 | 0.739 | 0.861 | 0.804 | 0.473 | 0.711 | 0.909 | 0.766 | -0.0594 | -0.023 | -0.0085 | -0.0473 | 0.0089 | -0.0109 | 0.0128 | -0.0483 | -0.0293 | -0.049 | -0.0398
2 | Cc1c2c(nn1C)CSCc1cc(n(C)n1)CSc1cc(c3ccccc3c1)OCCCc1c(C(=O)O)n(C)c3c-2c(Cl)ccc13 [AZD5991] + CCN(CCO)CCCOc1ccc2c(Nc3cc(CC(=O)Nc4cccc(F)c4)[nH]n3)ncnc2c1 [AZD2811] (first compound max 1 µM, 7x7, partner max 1 µM) | 0.839 | 0.623 | 0.19 | 0.383 | 0.37 | 0.246 | 0.406 | 0.955 | 0.987 | 0.078 | 0.0654 | -0.0457 | -0.0228 | 0.0288 | 0.0306 | 0.0604 | 0.0267 | -0.0039 | -0.021 | -0.0148
3 | COc1cccc(OCCCN)c1-c1cc(Nc2cnc(C#N)cn2)n[nH]1 [Prexasertib] + CCc1c2c(nc3ccc(O)cc13)-c1cc3c(c(=O)n1C2)COC(=O)[C@]3(O)CC [SN-38] (first compound max 1 µM, 7x7, partner max 0.3 µM) | 0.924 | 0.887 | 0.713 | 0.936 | 0.798 | 0.847 | 0.79 | 0.897 | 0.983 | 0.0027 | -0.0411 | -0.0177 | -0.0348 | -0.0177 | -0.0653 | 0.0723 | -0.012 | 0.0017 | 0.0081 | -0.107
4 | CN(CCO)CC[C@H](CSc1ccccc1)Nc1ccc(S(=O)(=O)NC(=O)c2ccc(N3CCC([C@@H](O)c4ccccc4-c4ccc(Cl)cc4)CC3)cc2)cc1S(=O)(=O)C(F)(F)F [AZD4320] + C1CN(CCC1(C(=O)N[C@@H](CCO)C2=CC=C(C=C2)Cl)N)C3=NC=NC4=C3C=CN4 [Capivasertib] (first compound max 1 µM, 7x7, partner max 3 µM) | 0.686 | 0.137 | 0.074 | 0.196 | 0.35 | 0.44 | 0.129 | 0.16 | 0.899 | -0.0178 | -0.0205 | 0.0468 | -0.0482 | -0.031 | -0.0253 | -0.0517 | 0.0083 | -0.0179 | -0.0041 | -0.0527
5 | Cc1cc2ncnn2cc1Nc1ncc2c(n1)n(C1CCOCC1)c(=O)n2C [AZD7648] + CCN(CCO)CCCOc1ccc2c(Nc3cc(CC(=O)Nc4cccc(F)c4)[nH]n3)ncnc2c1 [AZD2811] (first compound max 10 µM, 7x7, partner max 1 µM) | 0.362 | 0.155 | 0.0971 | 0.265 | 0.53 | 0.293 | 0.37 | 0.526 | 0.601 | 0.0572 | 0.0507 | -0.0385 | -0.0053 | -0.0488 | 0.0429 | 0.0014 | -0.0538 | 0.018 | 0.0147 | 0.0181
6 | COc1nnc2ccc(N3CCC(c4ccc(OCCN5CCN(C)C(=O)[C@H]5C)cc4)CC3)nn12 [AZD5153] + C=CCn1c(=O)c2cnc(Nc3ccc(N4CCN(C)CC4)cc3)nc2n1-c1cccc(C(C)(C)O)n1 [AZD1775] (first compound max 1 µM, partner max 1 µM) | 0.614 | 0.735 | 0.693 | 0.868 | 0.595 | 0.41 | 0.777 | 0.884 | 0.953 | -0.0313 | -0.101 | -0.0406 | -0.0766 | 0.0514 | -0.0294 | -0.0768 | -0.0364 | -0.0478 | -0.0475 | -0.119
7 | Cn1cnc2c(F)c(Nc3ccc(Br)cc3Cl)c(C(=O)NOCCO)cc21 [Selumetinib] + C=CCn1c(=O)c2cnc(Nc3ccc(N4CCN(C)CC4)cc3)nc2n1-c1cccc(C(C)(C)O)n1 [AZD1775] (first compound max 10 µM, partner max 1 µM) | 0.503 | 0.877 | 0.588 | 0.889 | 0.62 | 0.392 | 0.652 | 0.782 | 0.793 | 0.0096 | -0.0685 | -0.0491 | -0.07 | -0.0614 | -0.0083 | -0.0337 | -0.0548 | -0.0131 | -0.0458 | -0.0439
8 | CC(=O)c1c(C)c2cnc(Nc3ccc(N4CCNCC4)cn3)nc2n(C2CCCC2)c1=O [Palbociclib] + Cn1cnc2c(F)c(Nc3ccc(Br)cc3Cl)c(C(=O)NOCCO)cc21 [Selumetinib] (first compound max 10 µM, 7x7, partner max 10 µM) | 0.479 | 0.735 | 0.452 | 0.769 | 0.542 | 0.0922 | 0.463 | 0.601 | 0.785 | -0.0396 | 0.0036 | -0.0379 | -0.0463 | -0.0538 | 0.0575 | 0.0613 | 0.0067 | -0.0685 | -0.0291 | -0.0354
9 | Cc1cc2ncnn2cc1Nc1ncc2c(n1)n(C1CCOCC1)c(=O)n2C [AZD7648] + O=C(c1cc(Cc2n[nH]c(=O)c3ccccc23)ccc1F)N1CCN(C(=O)C2CC2)CC1 [Olaparib] (first compound max 10 µM, 7x7, partner max 10 µM) | 0.272 | 0.0971 | 0.205 | 0.0989 | 0.55 | 0.14 | 0.249 | 0.41 | 0.451 | -0.0251 | -0.0127 | -0.0115 | -0.0726 | 0.0357 | -0.0313 | -0.0752 | -0.0569 | 0.0076 | -0.0855 | -0.0567
10 | CC1(C)CCC(CN2CCN(c3ccc(C(=O)NS(=O)(=O)c4ccc(NCC5CCOCC5)c([N+](=O)[O-])c4)c(Oc4cnc5[nH]ccc5c4)c3)CC2)=C(c2ccc(Cl)cc2)C1 [Venetoclax] + C[C@@H]1COCCN1C2=NC(=NC(=C2)C3(CC3)[S@](=N)(=O)C)C4=C5C=CNC5=NC=C4 [AZD6738] (first compound max 1 µM, 7x7, partner max 10 µM) | 0.659 | 0.611 | 0.471 | 0.865 | 0.619 | 0.503 | 0.534 | 0.688 | 0.983 | -0.0195 | 0.0384 | -0.0158 | 0.0138 | 0.0106 | -0.0482 | -0.0312 | 0.0245 | 0.0052 | -0.0438 | 0.015
11 | CN(CCO)CC[C@H](CSc1ccccc1)Nc1ccc(S(=O)(=O)NC(=O)c2ccc(N3CCC([C@@H](O)c4ccccc4-c4ccc(Cl)cc4)CC3)cc2)cc1S(=O)(=O)C(F)(F)F [AZD4320] + CCN(CCO)CCCOc1ccc2c(Nc3cc(CC(=O)Nc4cccc(F)c4)[nH]n3)ncnc2c1 [AZD2811] (first compound max 1 µM, 7x7, partner max 1 µM) | 0.819 | 0.844 | 0.089 | 0.232 | 0.701 | 0.412 | 0.228 | 0.215 | 0.891 | 0.0101 | -0.0035 | -0.0551 | 0.117 | -0.0304 | -0.0372 | 0.0602 | 0.0493 | 0.0021 | 0.0019 | -0.0754
12 | CC(=O)c1c(C)c2cnc(Nc3ccc(N4CCNCC4)cn3)nc2n(C2CCCC2)c1=O [Palbociclib] + Cc1c2c(nn1C)CSCc1cc(n(C)n1)CSc1cc(c3ccccc3c1)OCCCc1c(C(=O)O)n(C)c3c-2c(Cl)ccc13 [AZD5991] (first compound max 10 µM, 7x7, partner max 1 µM) | 0.523 | 0.329 | 0.445 | 0.449 | 0.346 | 0.159 | 0.478 | 0.897 | 1 | -0.0408 | -0.0228 | -0.0722 | -0.0395 | -0.0174 | -0.0171 | -0.0424 | -0.005 | -0.0709 | -0.0371 | -0.0063
13 | COc1nnc2ccc(N3CCC(c4ccc(OCCN5CCN(C)C(=O)[C@H]5C)cc4)CC3)nn12 [AZD5153] + CC1(C)CCC(CN2CCN(c3ccc(C(=O)NS(=O)(=O)c4ccc(NCC5CCOCC5)c([N+](=O)[O-])c4)c(Oc4cnc5[nH]ccc5c4)c3)CC2)=C(c2ccc(Cl)cc2)C1 [Venetoclax] (first compound max 1 µM, 7x7, partner max 1 µM) | 0.623 | 0.535 | 0.371 | 0.718 | 0.456 | 0.28 | 0.691 | 0.761 | 0.991 | -0.0454 | 0.0245 | -0.0391 | -0.0999 | -0.0672 | -0.0621 | -0.0755 | -0.0694 | -0.0358 | -0.0571 | -0.0228
